Assay results taken from patent US12514882B2, “Faecalibacterium prausnitzii strain EB-FPDK11 and use thereof” (ENTEROBIOME INC., priority 2020, dated 2026).
Values after ≈ are worked out from the molar mass of the structure shown.

How the values were obtained:
Format in all cases: cell-based
[1] = system: Faecalibacterium prausnitzii EB-FPDK11 strain; experiment: MIC, liquid medium microdilution (CLSI), EB-FPDK11; details: for MIC breakpoint category (S/I/R): EB-FPDK11; for resistance or susceptibility of the EB-FPDK11 strain to the agent (in words): text summary of Table 4
[2] = system: Bacteroides thetaiotaomicron ATCC 29741; experiment: MIC, liquid medium microdilution (CLSI), QC strain; details: ATCC29741
[3] = system: Faecalibacterium prausnitzii DSM 17677^T; experiment: MIC, liquid medium microdilution (CLSI), standard strain; details: for MIC breakpoint category (S/I/R): DSM 17677^T

Molecule: C[C@@H](O)[C@H]1C(=O)N2C(C(=O)O)=C(S[C@@H]3CN[C@H](C(=O)N(C)C)C3)[C@H](C)[C@H]12 [MEM, meropenem]
- MIC breakpoint category (S/I/R) ([1]; MEM breakpoints): R (≥16)
- resistance or susceptibility of the EB-FPDK11 strain to the agent (in words) [1]: resistance
- MIC [2]: 0.5 µg/mL (≈ 1.3 µM)
- MIC breakpoint category (S/I/R) ([3]; MEM breakpoints): R (≥16)

Molecule: CCC[C@@H]1C[C@@H](C(=O)N[C@@H]([C@H]2O[C@H](SC)[C@H](O)[C@@H](O)[C@H]2O)[C@H](C)Cl)N(C)C1 [CLI, clindamycin]
- MIC breakpoint category (S/I/R) ([1]; CLI breakpoints): (S) (≤2)
- MIC breakpoint category (S/I/R) ([3]; CLI breakpoints): (S) (≤2)

Molecule: COc1c(N2C[C@@H]3CCCN[C@@H]3C2)c(F)cc2c(=O)c(C(=O)O)cn(C3CC3)c12 [MXF, moxifloxacin]
- MIC breakpoint category (S/I/R) ([1]; MXF breakpoints): R (≥8)
- MIC breakpoint category (S/I/R) ([3]; MXF breakpoints): R (≥8)

Molecule: O=C(N[C@H](CO)[C@H](O)c1ccc([N+](=O)[O-])cc1)C(Cl)Cl [CHL, chloramphenicol]
- MIC breakpoint category (S/I/R) ([1]; CHL breakpoints): S (≤8)
- resistance or susceptibility of the EB-FPDK11 strain to the agent (in words) [1]: susceptibility
- MIC breakpoint category (S/I/R) ([3]; CHL breakpoints): R (≥32)

Molecule: CO/N=C(\C(=O)N[C@@H]1C(=O)N2C(C(=O)O)=CCS[C@H]12)c1csc(N)n1 [CTZ, ceftizoxime]
- MIC breakpoint category (S/I/R) ([1]; CTZ breakpoints): R (≥128)
- resistance or susceptibility of the EB-FPDK11 strain to the agent (in words) [1]: resistance
- MIC breakpoint category (S/I/R) ([3]; CTZ breakpoints): I (64)

Molecule: Piperacillin-tazobactam [PTZ]
- MIC breakpoint category (S/I/R) ([1]; PTZ breakpoints): R (≥128/4)
- MIC ([1]; test strain EB-FPDK11): 256/4
- resistance or susceptibility of the EB-FPDK11 strain to the agent (in words) [1]: resistance
- MIC breakpoint category (S/I/R) ([3]; PTZ breakpoints): R (≥128/4)
- MIC ([3]; test strain DSM 17677^T): 256/4

Molecule: Cc1ncc([N+](=O)[O-])n1CCO [MTZ, metronidazole]
- MIC breakpoint category (S/I/R) ([1]; MTZ breakpoints): 5
- resistance or susceptibility of the EB-FPDK11 strain to the agent (in words) [1]: susceptibility
- MIC breakpoint category (S/I/R) ([3]; MTZ breakpoints): S (≤8)
